According to the supplement of paper PMC13380429:

Columns and labels:
[1] = system: A549-ACE2 infected with SARS-CoV-2; assay: cell count relative to DMSO; higher = less toxic; conditions: 24 h
Caco-2 [2] = assay: cell viability relative to DMSO; higher = less toxic; conditions: 72 h
Calu-3 [3] = assay: as above; conditions: 72 h
HepG2 [4] = assay: as above; conditions: 72 h
U2OS [5] = assay: as above; conditions: 72 h
Vero E6 [6] = assay: as above; conditions: 72 h
[7] = system: A549-ACE2 infected with SARS-CoV-2; assay: SARS-CoV-2 infection rate relative to DMSO; higher = more infection; conditions: 24 h
A549-ACE2 = assay: drug-induced phospholipidosis relative to tamoxifen; higher = more phospholipidosis
[8] = system: A549-ACE2 infected with SARS-CoV-2; assay: morphology score (similarity to uninfected cells); higher = more like uninfected cells; conditions: 24 h
Caco-2 [9] = assay: relative viability EC50 (midpoint between 100% and the lowest measured viability); higher = less toxic; conditions: 72 h
Calu-3 [10] = assay: as above; conditions: 72 h
HepG2 [11] = assay: as above; conditions: 72 h
U2OS [12] = assay: as above; conditions: 72 h
Vero E6 [13] = assay: as above; conditions: 72 h
Caco-2 [14] = assay: drug sensitivity score (DSS) for viability; higher = more toxic; extreme values may be limits of the assay; conditions: 72 h
Calu-3 [15] = assay: as above; conditions: 72 h
HepG2 [16] = assay: as above; conditions: 72 h
U2OS [17] = assay: as above; conditions: 72 h
Vero E6 [18] = assay: as above; conditions: 72 h

CCN(CC)CCOc1ccc2c(c1)C(=O)c1cc(OCCN(CC)CC)ccc1-2 [tilorone]
Conditions	SARS-CoV-2 infection rate, [7] [%]	cell count, [1] [%]	cell viability, Caco-2 [2] [%]	cell viability, Calu-3 [3] [%]	cell viability, HepG2 [4] [%]	cell viability, U2OS [5] [%]	cell viability, Vero E6 [6] [%]	morphology score, [8]
1 nM	–	–	102	103	98.4	103	106	–
10 nM	–	–	102	101	93.2	104	104	–
0.1 µM	88	102	–	–	–	–	–	0.26
100 nM	–	–	97.1	95.7	91.3	100	97.5	–
0.3 µM	84	106	–	–	–	–	–	0.37
1 µM	77	102	–	–	–	–	–	0.45
1000 nM	–	–	95	96.6	96.8	95.9	100	–
3 µM	46	108	–	–	–	–	–	0.5
10000 nM	–	–	78.4	78.8	15.8	98.9	35.2	–

drug-induced phospholipidosis [%], A549-ACE2
Conditions	0.3 µM	0.833333 µM	3.33333 µM	6.66667 µM	10 µM	30 µM
24 h	-3.79	-6.82	-21.7	-22.6	-23.9	-27.5
48 h	2.58	-4.68	-11.7	-11.1	-10	-8.85
72 h	3.61	-1.19	-2.58	0.944	-0.898	–

Conditions	drug sensitivity score	relative viability EC50 [µM]
Caco-2 [9]	–	> 10
Caco-2 [14]	1.3	–
Calu-3 [10]	–	> 10
Calu-3 [15]	1.2	–
HepG2 [11]	–	2.87
HepG2 [16]	5.1	–
U2OS [12]	–	> 10
U2OS [17]	0	–
Vero E6 [13]	–	3.19
Vero E6 [18]	3.5	–

OCC(CO)N[C@H]1C[C@](O)(CO)[C@@H](O)[C@H](O)[C@H]1O [voglibose]
cell viability [%]
Conditions	Caco-2 [2]	Calu-3 [3]	HepG2 [4]	U2OS [5]	Vero E6 [6]
1 nM	94.4	97.8	98.2	103	97
10 nM	102	106	108	100	95.1
100 nM	93.7	98.4	102	100	94.3
1000 nM	98	101	100	98.2	93.8
10000 nM	106	108	111	97.5	104

Conditions	drug sensitivity score	relative viability EC50 [µM]
Caco-2 [9]	–	> 10
Caco-2 [14]	0	–
Calu-3 [10]	–	> 10
Calu-3 [15]	0	–
HepG2 [11]	–	> 10
HepG2 [16]	0	–
U2OS [12]	–	> 10
U2OS [17]	0	–
Vero E6 [13]	–	> 10
Vero E6 [18]	0	–

COc1cccc([C@H](O)C2CCN(CCc3ccc(F)cc3)CC2)c1OC [volinanserin]
cell viability [%]
Conditions	Caco-2 [2]	Calu-3 [3]	HepG2 [4]	U2OS [5]	Vero E6 [6]
1 nM	101	90.9	99.9	103	102
10 nM	97.3	104	99.9	96.2	99.9
100 nM	101	99.9	95.8	99.7	98.9
1000 nM	90.8	101	101	98.6	101
10000 nM	88.9	95.1	91.3	98.5	96.1

Conditions	drug sensitivity score	relative viability EC50 [µM]
Caco-2 [9]	–	> 10
Caco-2 [14]	0.2	–
Calu-3 [10]	–	> 10
Calu-3 [15]	0	–
HepG2 [11]	–	> 10
HepG2 [16]	0	–
U2OS [12]	–	> 10
U2OS [17]	0	–
Vero E6 [13]	–	> 10
Vero E6 [18]	0	–

CC(=O)CC(c1ccccc1)c1c(O)c2ccccc2oc1=O (centres undefined) [warfarin]
cell viability [%]
Conditions	Caco-2 [2]	Calu-3 [3]	HepG2 [4]	U2OS [5]	Vero E6 [6]
1 nM	98	100	100	96	101
10 nM	108	91.9	85.7	97.2	96.9
100 nM	101	104	94.8	98.3	105
1000 nM	95.1	97.8	98.5	102	103
10000 nM	99.7	115	107	94.9	97.1

Conditions	drug sensitivity score	relative viability EC50 [µM]
Caco-2 [9]	–	> 10
Caco-2 [14]	0	–
Calu-3 [10]	–	> 10
Calu-3 [15]	0	–
HepG2 [11]	–	> 10
HepG2 [16]	0	–
U2OS [12]	–	> 10
U2OS [17]	0	–
Vero E6 [13]	–	> 10
Vero E6 [18]	0	–

Cc1cc(-c2ccc(CC(=O)Nc3ccc(-c4cccnc4)cc3)cc2)ccn1 [wnt-c59]
cell viability [%]
Conditions	Caco-2 [2]	Calu-3 [3]	HepG2 [4]	U2OS [5]	Vero E6 [6]
1 nM	104	106	96.3	93.9	97.1
10 nM	94.8	106	110	93.6	101
100 nM	109	101	94.5	94.8	100
1000 nM	96.1	98	103	92.9	99.5
10000 nM	85	83.6	81.8	91.3	102

Conditions	drug sensitivity score	relative viability EC50 [µM]
Caco-2 [9]	–	> 10
Caco-2 [14]	0.6	–
Calu-3 [10]	–	> 10
Calu-3 [15]	0.5	–
HepG2 [11]	–	> 10
HepG2 [16]	0.3	–
U2OS [12]	–	> 10
U2OS [17]	0	–
Vero E6 [13]	–	> 10
Vero E6 [18]	0	–
